{"source": "ChEMBL document CHEMBL4828735", "about": "“Discovery of N-((3S,4S)-4-(3,4-Difluorophenyl)piperidin-3-yl)-2-fluoro-4-(1-methyl-1H-pyrazol-5-yl)benzamide (Hu7691), a Potent and Selective Akt Inhibitor That Enables Decrease of Cutaneous Toxicity” (J Med Chem, 2021)", "key": {"[1]": {"test": "Toxicity in mouse assessed as prone posture at 150 mg/kg", "assay_type": "organism-based", "settings": "in vivo"}, "KHOS/NP [2]": {"tested_on": "KHOS/NP", "test": "Antiproliferative activity against human KHOS cells assessed as inhibition of cell growth incubated for 72 hrs by SRB assay", "assay_type": "functional, cell-based"}, "hERG (KCNH2)": {"molecular_target": "hERG (KCNH2) (Homo sapiens, UniProt Q12809)", "sequence (Q12809 whole entry)": "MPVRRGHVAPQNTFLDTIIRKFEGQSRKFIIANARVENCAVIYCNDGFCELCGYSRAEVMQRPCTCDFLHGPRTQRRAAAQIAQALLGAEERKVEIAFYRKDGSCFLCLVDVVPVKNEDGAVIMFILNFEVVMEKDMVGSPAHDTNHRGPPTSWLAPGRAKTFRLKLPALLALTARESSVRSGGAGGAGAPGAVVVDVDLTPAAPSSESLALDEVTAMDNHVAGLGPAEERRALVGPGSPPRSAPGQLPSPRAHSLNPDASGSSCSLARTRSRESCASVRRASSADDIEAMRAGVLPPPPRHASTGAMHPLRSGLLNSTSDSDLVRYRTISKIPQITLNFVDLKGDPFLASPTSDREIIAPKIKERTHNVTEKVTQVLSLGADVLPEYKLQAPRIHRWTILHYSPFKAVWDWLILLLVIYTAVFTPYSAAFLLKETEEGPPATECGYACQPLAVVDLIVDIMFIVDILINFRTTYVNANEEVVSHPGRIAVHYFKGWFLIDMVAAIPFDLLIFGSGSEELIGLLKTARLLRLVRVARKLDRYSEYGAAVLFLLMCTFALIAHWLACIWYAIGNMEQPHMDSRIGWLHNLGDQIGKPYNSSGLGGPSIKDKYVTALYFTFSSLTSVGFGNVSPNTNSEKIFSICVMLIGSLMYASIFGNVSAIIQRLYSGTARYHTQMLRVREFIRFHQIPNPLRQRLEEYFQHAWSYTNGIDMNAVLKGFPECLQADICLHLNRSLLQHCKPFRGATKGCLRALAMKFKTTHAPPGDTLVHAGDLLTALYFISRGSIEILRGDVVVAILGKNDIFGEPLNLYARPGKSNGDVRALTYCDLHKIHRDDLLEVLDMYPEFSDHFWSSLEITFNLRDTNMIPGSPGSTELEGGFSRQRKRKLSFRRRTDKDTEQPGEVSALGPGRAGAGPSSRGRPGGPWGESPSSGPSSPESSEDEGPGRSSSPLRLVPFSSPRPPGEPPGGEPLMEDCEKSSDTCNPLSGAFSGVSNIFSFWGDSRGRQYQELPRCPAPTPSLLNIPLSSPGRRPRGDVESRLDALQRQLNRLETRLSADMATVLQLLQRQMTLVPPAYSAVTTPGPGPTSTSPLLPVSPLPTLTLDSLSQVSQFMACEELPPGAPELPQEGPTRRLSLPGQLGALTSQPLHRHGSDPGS", "test": "Inhibition of human ERG expressed in HEK293 cells at 3 uM by whole cell patch clamp method relative to control", "assay_type": "cell-based", "settings": "HEK293 cells expressing hERG"}, "Homo sapiens": {"species_on_record": "Homo sapiens", "test": "Inhibition of PKG (unknown origin) at 0.5 uM"}, "[3]": {"molecular_target": "cGMP-dependent protein kinase 2 (Homo sapiens) (UniProt Q13237)", "sequence (Q13237 whole entry)": "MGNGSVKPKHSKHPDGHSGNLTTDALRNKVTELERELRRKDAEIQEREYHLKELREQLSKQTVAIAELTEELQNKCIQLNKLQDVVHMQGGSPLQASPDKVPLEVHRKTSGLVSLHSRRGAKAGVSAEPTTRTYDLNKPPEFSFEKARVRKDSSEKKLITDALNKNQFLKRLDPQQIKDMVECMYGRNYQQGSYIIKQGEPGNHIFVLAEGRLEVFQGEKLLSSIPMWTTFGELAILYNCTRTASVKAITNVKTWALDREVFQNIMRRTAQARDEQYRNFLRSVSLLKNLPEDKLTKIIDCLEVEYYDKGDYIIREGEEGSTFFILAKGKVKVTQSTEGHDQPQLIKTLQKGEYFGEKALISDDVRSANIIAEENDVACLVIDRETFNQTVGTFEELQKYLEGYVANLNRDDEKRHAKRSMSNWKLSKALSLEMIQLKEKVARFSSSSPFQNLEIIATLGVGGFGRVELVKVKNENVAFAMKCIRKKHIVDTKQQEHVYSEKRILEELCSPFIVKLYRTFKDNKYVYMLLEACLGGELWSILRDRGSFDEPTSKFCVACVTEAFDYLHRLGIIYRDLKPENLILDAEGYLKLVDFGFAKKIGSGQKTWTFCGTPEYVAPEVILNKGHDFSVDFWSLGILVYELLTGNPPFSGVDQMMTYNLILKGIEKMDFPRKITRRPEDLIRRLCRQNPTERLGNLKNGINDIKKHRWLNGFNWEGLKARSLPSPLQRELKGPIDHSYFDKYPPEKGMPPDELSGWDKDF", "test": "Inhibition of PRKG2 (unknown origin) at 0.5 uM"}, "[4]": {"molecular_target": "Protein kinase C eta type (Homo sapiens, UniProt P24723)", "sequence (P24723 whole entry)": "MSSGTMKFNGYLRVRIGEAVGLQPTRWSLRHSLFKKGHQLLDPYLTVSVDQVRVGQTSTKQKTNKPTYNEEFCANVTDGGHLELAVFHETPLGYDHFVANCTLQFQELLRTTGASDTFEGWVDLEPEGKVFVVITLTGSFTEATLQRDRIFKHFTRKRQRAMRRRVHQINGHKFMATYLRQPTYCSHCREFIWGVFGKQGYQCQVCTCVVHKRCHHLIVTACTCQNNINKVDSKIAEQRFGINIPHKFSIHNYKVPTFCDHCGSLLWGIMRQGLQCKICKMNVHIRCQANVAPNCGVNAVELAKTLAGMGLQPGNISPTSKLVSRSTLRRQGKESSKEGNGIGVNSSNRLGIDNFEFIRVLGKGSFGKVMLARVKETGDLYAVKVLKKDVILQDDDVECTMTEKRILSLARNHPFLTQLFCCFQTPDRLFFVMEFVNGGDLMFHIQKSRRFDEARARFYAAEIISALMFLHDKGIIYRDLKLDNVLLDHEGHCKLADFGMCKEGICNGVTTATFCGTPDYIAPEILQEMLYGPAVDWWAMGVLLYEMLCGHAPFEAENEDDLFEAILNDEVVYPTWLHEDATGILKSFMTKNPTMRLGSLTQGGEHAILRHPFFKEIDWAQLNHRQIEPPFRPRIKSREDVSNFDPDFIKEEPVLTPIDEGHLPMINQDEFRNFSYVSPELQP", "test": "Inhibition of PKCeta (unknown origin)"}, "[5]": {"molecular_target": "Ribosomal protein S6 kinase alpha-1 (Homo sapiens, UniProt Q15418)", "test": "Inhibition of RSK1 (unknown origin)"}, "[6]": {"molecular_target": "Serine/threonine-protein kinase Sgk1 (Homo sapiens, UniProt O00141)", "sequence (O00141 whole entry)": "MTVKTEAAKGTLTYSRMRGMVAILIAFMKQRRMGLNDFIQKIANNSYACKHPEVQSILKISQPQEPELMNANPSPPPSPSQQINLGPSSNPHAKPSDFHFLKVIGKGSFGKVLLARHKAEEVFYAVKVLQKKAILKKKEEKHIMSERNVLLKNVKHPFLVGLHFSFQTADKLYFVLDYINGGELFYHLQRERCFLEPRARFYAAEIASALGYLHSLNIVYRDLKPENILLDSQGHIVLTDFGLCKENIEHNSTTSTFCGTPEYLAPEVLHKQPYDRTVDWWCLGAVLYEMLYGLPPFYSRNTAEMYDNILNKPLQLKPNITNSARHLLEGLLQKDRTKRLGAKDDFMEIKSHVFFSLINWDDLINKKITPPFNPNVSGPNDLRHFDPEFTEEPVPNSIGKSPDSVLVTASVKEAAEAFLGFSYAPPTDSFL", "test": "Inhibition of SGK (unknown origin)"}, "[7]": {"molecular_target": "Testis-specific serine/threonine-protein kinase 1 (Homo sapiens, UniProt Q9BXA7)", "sequence (Q9BXA7 whole entry)": "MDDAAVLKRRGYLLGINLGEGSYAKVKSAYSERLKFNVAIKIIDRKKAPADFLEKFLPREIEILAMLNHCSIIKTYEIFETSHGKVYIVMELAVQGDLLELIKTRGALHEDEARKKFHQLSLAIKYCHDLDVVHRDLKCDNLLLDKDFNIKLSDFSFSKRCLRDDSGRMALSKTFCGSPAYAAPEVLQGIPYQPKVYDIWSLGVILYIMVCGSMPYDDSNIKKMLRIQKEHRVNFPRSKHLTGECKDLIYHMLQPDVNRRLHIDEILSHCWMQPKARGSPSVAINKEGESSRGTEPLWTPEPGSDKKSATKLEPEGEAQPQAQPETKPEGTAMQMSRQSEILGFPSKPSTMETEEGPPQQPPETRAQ", "test": "Inhibition of TSSK1 (unknown origin)"}, "[8]": {"molecular_target": "ALK tyrosine kinase receptor (Homo sapiens, UniProt Q9UM73)", "sequence (Q9UM73 whole entry)": "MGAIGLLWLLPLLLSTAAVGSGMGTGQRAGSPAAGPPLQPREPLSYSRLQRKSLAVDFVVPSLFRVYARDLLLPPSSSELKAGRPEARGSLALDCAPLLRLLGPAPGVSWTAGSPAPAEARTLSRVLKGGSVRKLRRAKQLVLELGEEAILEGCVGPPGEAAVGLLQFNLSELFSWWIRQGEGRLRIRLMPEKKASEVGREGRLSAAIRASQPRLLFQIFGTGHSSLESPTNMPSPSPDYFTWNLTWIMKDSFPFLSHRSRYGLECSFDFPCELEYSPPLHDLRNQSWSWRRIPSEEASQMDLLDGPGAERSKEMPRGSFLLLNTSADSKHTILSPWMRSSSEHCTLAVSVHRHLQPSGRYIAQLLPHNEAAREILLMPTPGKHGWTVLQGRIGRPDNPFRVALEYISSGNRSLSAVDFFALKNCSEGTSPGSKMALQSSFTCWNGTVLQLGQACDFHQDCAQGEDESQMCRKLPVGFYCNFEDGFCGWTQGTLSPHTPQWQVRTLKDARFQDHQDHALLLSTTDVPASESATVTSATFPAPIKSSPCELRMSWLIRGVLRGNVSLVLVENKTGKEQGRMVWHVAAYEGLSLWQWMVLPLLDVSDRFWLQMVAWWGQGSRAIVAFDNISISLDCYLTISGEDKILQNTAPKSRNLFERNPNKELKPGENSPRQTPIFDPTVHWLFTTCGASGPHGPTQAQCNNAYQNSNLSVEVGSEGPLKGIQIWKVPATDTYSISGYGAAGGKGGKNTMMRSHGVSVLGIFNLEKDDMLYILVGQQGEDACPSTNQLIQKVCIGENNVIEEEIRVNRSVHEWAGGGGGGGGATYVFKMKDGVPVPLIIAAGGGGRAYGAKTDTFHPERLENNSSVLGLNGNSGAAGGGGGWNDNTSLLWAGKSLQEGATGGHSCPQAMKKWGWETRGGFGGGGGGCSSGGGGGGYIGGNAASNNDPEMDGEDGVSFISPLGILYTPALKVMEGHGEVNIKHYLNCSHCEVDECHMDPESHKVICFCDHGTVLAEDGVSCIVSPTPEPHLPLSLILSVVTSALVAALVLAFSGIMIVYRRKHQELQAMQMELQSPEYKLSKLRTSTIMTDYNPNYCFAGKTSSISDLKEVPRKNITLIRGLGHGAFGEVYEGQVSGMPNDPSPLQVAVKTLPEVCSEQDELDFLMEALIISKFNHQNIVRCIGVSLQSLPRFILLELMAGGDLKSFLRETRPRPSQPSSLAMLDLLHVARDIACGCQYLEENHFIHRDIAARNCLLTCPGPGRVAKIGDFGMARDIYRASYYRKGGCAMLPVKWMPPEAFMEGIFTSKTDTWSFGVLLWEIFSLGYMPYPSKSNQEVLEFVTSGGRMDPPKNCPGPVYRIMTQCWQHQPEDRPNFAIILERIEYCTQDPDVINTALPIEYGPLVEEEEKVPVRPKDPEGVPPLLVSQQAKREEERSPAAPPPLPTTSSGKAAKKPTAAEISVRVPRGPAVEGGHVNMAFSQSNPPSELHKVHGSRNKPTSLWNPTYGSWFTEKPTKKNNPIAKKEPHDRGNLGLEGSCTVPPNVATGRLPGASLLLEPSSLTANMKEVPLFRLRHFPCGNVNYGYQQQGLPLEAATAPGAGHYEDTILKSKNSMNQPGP", "test": "Inhibition of ALK (unknown origin)"}, "[9]": {"molecular_target": "Phosphatidylinositol 4,5-bisphosphate 3-kinase catalytic subunit alpha isoform (Homo sapiens, UniProt P42336)", "test": "Inhibition of PI3Kalpha (unknown origin)"}, "NCI-H1975": {"tested_on": "NCI-H1975", "test": "Antiproliferative activity against human NCI-H1975 cells assessed as inhibition of cell growth incubated for 72 hrs by SRB method", "assay_type": "functional, cell-based", "settings": "NCI-H1975, 72 h"}, "SMMC-7721": {"tested_on": "SMMC-7721", "test": "Antiproliferative activity against human SMMC-7721 cells assessed as inhibition of cell growth incubated for 72 hrs by SRB method", "assay_type": "functional, cell-based", "settings": "SMMC-7721, 72 h"}, "Cytochrome P450 3A5": {"molecular_target": "Cytochrome P450 3A5 (Homo sapiens, UniProt P20815)", "test": "Inhibition of CYP3A5 (unknown origin)", "assay_type": "ADME"}, "[10]": {"test": "Microsomal stability in mouse liver microsomes assessed as half life at 50 uM preincubated for 5 mins with NADPH followed by compound addition and measured upto 60 mins by LC-MS/MS analysis", "assay_type": "ADME, Microsome"}, "[11]": {"test": "Microsomal stability in monkey liver microsomes assessed as intrinsic clearance at 50 uM preincubated for 5 mins with NADPH followed by compound addition and measured upto 60 mins by LC-MS/MS analysis", "assay_type": "ADME, Macaca mulatta, Microsome", "settings": "rhesus monkey, read-out: CLH"}, "[12]": {"test": "Microsomal stability in rat liver microsomes assessed as intrinsic clearance at 50 uM preincubated for 5 mins with NADPH followed by compound addition and measured upto 60 mins by LC-MS/MS analysis", "assay_type": "ADME, Microsome", "settings": "read-out: CLH"}, "[13]": {"test": "Tmax in Sprague-Dawley rat at 2 mg/kg, iv measured upto 24 hrs by LC-MS/MS analysis", "assay_type": "ADME, organism-based", "settings": "in vivo"}, "[14]": {"test": "Tmax in Beagle dog at 20 mg/kg, ig measured upto 96 hrs by LC-MS/MS analysis", "assay_type": "ADME, organism-based, Canis lupus familiaris", "settings": "in vivo, po"}, "[15]": {"test": "Half life in Sprague-Dawley rat at 15 mg/kg, ig measured upto 72 hrs by LC-MS/MS analysis", "assay_type": "ADME, organism-based", "settings": "in vivo, po"}, "[16]": {"test": "Cmax in Sprague-Dawley rat at 15 mg/kg, ig measured upto 72 hrs by LC-MS/MS analysis", "assay_type": "ADME, organism-based", "parameters": "route […], dose 15 mg/kg, time <=72", "settings": "in vivo, po"}, "[17]": {"test": "AUC(0 to t) in Sprague-Dawley rat at 15 mg/kg, ig measured upto 72 hrs by LC-MS/MS analysis", "assay_type": "ADME, organism-based", "parameters": "route […], dose 15 mg/kg, time <=72", "settings": "in vivo, po"}, "[18]": {"test": "AUC(0 to infinity) in Sprague-Dawley rat at 2 mg/kg, iv measured upto 24 hrs by LC-MS/MS analysis", "assay_type": "ADME, organism-based", "parameters": "route intravenous, dose 2 mg/kg, time <=24", "settings": "in vivo"}, "[19]": {"test": "Oral bioavailability in Sprague-Dawley rat measured upto 72 hrs by LC-MS/MS analysis", "assay_type": "ADME, organism-based", "settings": "in vivo"}, "[20]": {"test": "Drug metabolism in po dosed Sprague-Dawley rat urine assessed as M3 metabolite formation measured upto 72 hrs by UPLC-TOF-MS/MS analysis", "assay_type": "ADME, organism-based", "settings": "in vivo"}, "[21]": {"test": "Drug metabolism in po dosed Sprague-Dawley rat feces assessed as M2 metabolite formation measured upto 24 hrs by UPLC-TOF-MS/MS analysis", "assay_type": "ADME, organism-based", "settings": "in vivo"}, "[22]": {"test": "Drug metabolism in po dosed Sprague-Dawley rat bile assessed as M1 metabolite formation measured upto 24 hrs by UPLC-TOF-MS/MS analysis", "assay_type": "ADME, organism-based", "settings": "in vivo"}, "[23]": {"test": "Drug metabolism in po dosed Sprague-Dawley rat bile assessed as M2 metabolite formation measured upto 24 hrs by UPLC-TOF-MS/MS analysis", "assay_type": "ADME, organism-based", "settings": "in vivo"}, "[24]": {"test": "Drug metabolism in po dosed Sprague-Dawley rat bile assessed as M4 metabolite formation measured upto 24 hrs by UPLC-TOF-MS/MS analysis", "assay_type": "ADME, organism-based", "settings": "in vivo"}, "[25]": {"test": "Drug metabolism in po dosed Sprague-Dawley rat blood assessed as M1 metabolite formation measured upto 6 hrs by UPLC-TOF-MS/MS analysis", "assay_type": "ADME, organism-based", "settings": "in vivo"}, "[26]": {"test": "Drug metabolism in po dosed Sprague-Dawley rat blood assessed as M3 metabolite formation measured upto 6 hrs by UPLC-TOF-MS/MS analysis", "assay_type": "ADME, organism-based", "settings": "in vivo"}, "[27]": {"test": "Toxicity in Beagle dog assessed as thymic atrophy at 100 mg/kg", "assay_type": "organism-based, Canis lupus familiaris", "settings": "in vivo"}, "[28]": {"test": "Toxicity in Sprague-Dawley rat assessed as increase in body weight at 25 to 50 mg/kg administered daily for 4 weeks", "assay_type": "organism-based", "settings": "in vivo, 672 h, dose 25-50 mg/kg"}, "[29]": {"test": "Toxicity in Sprague-Dawley rat assessed as increase in body weight at 75 mg/kg administered daily for 4 weeks", "assay_type": "organism-based", "settings": "in vivo, 672 h"}, "[30]": {"test": "Toxicity in Sprague-Dawley rat assessed as effect on spleen at 25 to 75 mg/kg administered daily for 4 weeks by histopathological analysis", "assay_type": "organism-based", "settings": "in vivo, 672 h, dose 25-75 mg/kg"}, "[31]": {"test": "Toxicity in Sprague-Dawley rat assessed as effect on uterus at 25 to 75 mg/kg administered daily for 4 weeks by histopathological analysis", "assay_type": "organism-based", "settings": "in vivo, 672 h, dose 25-75 mg/kg"}, "[32]": {"test": "Toxicity in Sprague-Dawley rat assessed as effect on bone marrow at 25 to 75 mg/kg administered daily for 4 weeks by histopathological analysis", "assay_type": "organism-based", "settings": "in vivo, 672 h, dose 25-75 mg/kg"}, "KHOS/NP [33]": {"tested_on": "KHOS/NP", "test": "Antitumor activity against human KHOS cells xenografted in ig dosed BALB/c nude mouse assessed as tumor growth inhibition administered once daily for 22 days", "assay_type": "functional, organism-based", "settings": "dose 12.5-50 mg/kg, time 22.0 day"}, "KHOS/NP [34]": {"tested_on": "KHOS/NP", "test": "Antitumor activity against human KHOS cells xenografted in dosed BALB/c nude mouse assessed as tumor growth inhibition at 12.5 to 50 mg/kg, ig administered once daily for 22 days", "assay_type": "functional", "settings": "dose 12.5-50 mg/kg, time 22 day"}}, "note": "Calls of active or inactive are those of the source. The rule behind the calls is not given here."}
{"molecule": "Cl.Cn1nccc1-c1ccc(C(=O)N[C@@H]2CNCC[C@H]2c2ccc(F)c(F)c2)c(F)c1", "values": [{"measurement": "Activity", "setting": "[1]", "result": "Toxic"}, {"measurement": "IC50", "setting": "KHOS/NP [2]", "result": 14.9, "unit": "µM"}, {"measurement": "inhibition at 3 µM", "setting": "hERG (KCNH2)", "result": 15.9, "unit": "%"}, {"measurement": "inhibition", "setting": "Homo sapiens", "result": "Active"}, {"measurement": "inhibition", "setting": "[3]", "result": "Active"}, {"measurement": "IC50", "setting": "[4]", "result": "> 2", "unit": "µM"}, {"measurement": "IC50", "setting": "[5]", "result": 0.756, "unit": "µM"}, {"measurement": "IC50", "setting": "[6]", "result": 1.01, "unit": "µM"}, {"measurement": "IC50", "setting": "[7]", "result": "> 10", "unit": "µM"}, {"measurement": "IC50", "setting": "[8]", "result": "> 10", "unit": "µM"}, {"measurement": "IC50", "setting": "[9]", "result": "> 10", "unit": "µM"}, {"measurement": "IC50", "setting": "NCI-H1975", "result": 7.56, "unit": "µM"}, {"measurement": "IC50", "setting": "SMMC-7721", "result": 19.8, "unit": "µM"}, {"measurement": "IC50", "setting": "Cytochrome P450 3A5", "result": "> 100", "unit": "µM"}, {"measurement": "half-life at 50 µM", "setting": "[10]", "result": 6.73, "unit": "h"}, {"measurement": "microsomal CLint at 50 µM", "setting": "[11]", "result": 13.6, "unit": "µL/min/mg"}, {"measurement": "microsomal CLint at 50 µM", "setting": "[12]", "result": 20, "unit": "µL/min/mg"}, {"measurement": "Tmax", "setting": "[13]", "result": 6.6, "unit": "min"}, {"measurement": "Tmax", "setting": "[14]", "result": 8.67, "unit": "h"}, {"measurement": "half-life", "setting": "[15]", "result": 8.68, "unit": "h"}, {"measurement": "Cmax", "setting": "[16]", "result": 171, "unit": "ng/mL"}, {"measurement": "AUC(0-t) at 72 h", "setting": "[17]", "result": 2280, "unit": "ng·h/mL"}, {"measurement": "AUC(0-inf)", "setting": "[18]", "result": 533, "unit": "ng·h/mL"}, {"measurement": "bioavailability", "setting": "[19]", "result": 66.2, "unit": "%"}, {"measurement": "Drug metabolism", "setting": "[20]", "result": "Metabolite_Detected"}, {"measurement": "Drug metabolism", "setting": "[21]", "result": "Metabolite_Detected"}, {"measurement": "Drug metabolism", "setting": "[22]", "result": "Metabolite_Detected"}, {"measurement": "Drug metabolism", "setting": "[23]", "result": "Metabolite_Detected"}, {"measurement": "Drug metabolism", "setting": "[24]", "result": "Metabolite_Detected"}, {"measurement": "Drug metabolism", "setting": "[25]", "result": "Metabolite_Detected"}, {"measurement": "Drug metabolism", "setting": "[26]", "result": "Metabolite_Detected"}, {"measurement": "Activity", "setting": "[27]", "result": "Toxic"}, {"measurement": "Activity", "setting": "[28]", "result": "Toxic"}, {"measurement": "Activity", "setting": "[29]", "result": "Non-Toxic"}, {"measurement": "Activity", "setting": "[30]", "result": "Non-Toxic"}, {"measurement": "Activity", "setting": "[31]", "result": "Non-Toxic"}, {"measurement": "Activity", "setting": "[32]", "result": "Non-Toxic"}, {"measurement": "Activity", "setting": "KHOS/NP [33]", "result": "Dose-Dependent Effect"}, {"measurement": "TGI", "setting": "KHOS/NP [34]", "result": 55.7, "unit": "%"}]}
